The target of series [1] is T1, Alpha-2A adrenergic receptor (Homo sapiens, UniProt P08913). Note: in other assays of this panel Not Active means under 50% inhibition at 10 µM.
T1 sequence (P08913 whole entry): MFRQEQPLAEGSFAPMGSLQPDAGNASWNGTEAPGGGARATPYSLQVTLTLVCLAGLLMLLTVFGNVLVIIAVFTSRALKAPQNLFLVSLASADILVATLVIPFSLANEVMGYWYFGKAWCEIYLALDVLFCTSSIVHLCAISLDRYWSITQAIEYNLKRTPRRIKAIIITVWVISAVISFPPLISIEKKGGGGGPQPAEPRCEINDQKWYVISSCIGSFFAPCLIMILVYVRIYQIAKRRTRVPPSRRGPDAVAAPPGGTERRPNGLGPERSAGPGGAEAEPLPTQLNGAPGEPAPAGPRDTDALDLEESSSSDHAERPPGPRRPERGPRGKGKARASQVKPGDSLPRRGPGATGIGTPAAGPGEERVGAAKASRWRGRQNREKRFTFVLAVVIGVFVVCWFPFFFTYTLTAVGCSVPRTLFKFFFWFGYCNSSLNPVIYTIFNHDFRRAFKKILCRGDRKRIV
It is filed as cell membranes, Sf9, Membrane. The settings on record: sf9.

Series [2] is described as follows: DRUGMATRIX: Serotonin (5-Hydroxytryptamine) 5-HT3 radioligand binding (ligand: [3H] GR-65630). It is filed as cell membranes, Membrane. The settings on record: hek293; Not Active = under 50% inhibition at 10 µM.
The target of series [3] is 5-hydroxytryptamine receptor 6 (Homo sapiens, UniProt P50406). The class given is cell membranes, HeLa, Membrane. The conditions noted are these: hela. Note: in other assays of this panel Not Active means under 50% inhibition at 10 µM.
Series [4] can be described thus: DRUGMATRIX: Calcium Channel Type L, Phenylalkylamine radioligand binding (ligand: [3H] (-)-Desmethoxyverapamil (D-888)). The conditions noted are these: Not Active = under 50% inhibition at 10 µM. The class given is cell membranes, Rattus norvegicus, Wistar, Brain, Membrane.
Series [5] concerns the target C-C chemokine receptor type 5 (Homo sapiens, UniProt P51681). The class given is cell membranes, Membrane. The settings on record: hek293. Note: in other assays of this panel Not Active means under 50% inhibition at 10 µM.
Series [6] deals with T2, C-X-C chemokine receptor type 1 (Homo sapiens, UniProt P25024).
T2 sequence (P25024 whole entry): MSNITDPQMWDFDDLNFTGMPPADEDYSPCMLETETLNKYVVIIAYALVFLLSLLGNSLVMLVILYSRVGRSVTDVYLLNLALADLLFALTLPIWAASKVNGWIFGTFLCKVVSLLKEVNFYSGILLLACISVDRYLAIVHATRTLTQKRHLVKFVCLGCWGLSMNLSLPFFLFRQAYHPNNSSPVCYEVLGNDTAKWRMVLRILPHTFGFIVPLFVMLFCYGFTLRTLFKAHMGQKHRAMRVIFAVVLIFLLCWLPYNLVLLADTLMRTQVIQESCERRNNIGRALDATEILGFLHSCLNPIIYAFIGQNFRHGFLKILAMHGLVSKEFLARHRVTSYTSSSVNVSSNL

The target in series [7] is T3, Polyunsaturated fatty acid lipoxygenase ALOX15 (Oryctolagus cuniculus, UniProt P12530).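 Note: inhibition of 15-lipoxygenase enzyme activity measured with linoleic acid as the substrate; in other assays of this panel Not Active means under 50% inhibition at 10 µM.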
T3 sequence (P12530 whole entry): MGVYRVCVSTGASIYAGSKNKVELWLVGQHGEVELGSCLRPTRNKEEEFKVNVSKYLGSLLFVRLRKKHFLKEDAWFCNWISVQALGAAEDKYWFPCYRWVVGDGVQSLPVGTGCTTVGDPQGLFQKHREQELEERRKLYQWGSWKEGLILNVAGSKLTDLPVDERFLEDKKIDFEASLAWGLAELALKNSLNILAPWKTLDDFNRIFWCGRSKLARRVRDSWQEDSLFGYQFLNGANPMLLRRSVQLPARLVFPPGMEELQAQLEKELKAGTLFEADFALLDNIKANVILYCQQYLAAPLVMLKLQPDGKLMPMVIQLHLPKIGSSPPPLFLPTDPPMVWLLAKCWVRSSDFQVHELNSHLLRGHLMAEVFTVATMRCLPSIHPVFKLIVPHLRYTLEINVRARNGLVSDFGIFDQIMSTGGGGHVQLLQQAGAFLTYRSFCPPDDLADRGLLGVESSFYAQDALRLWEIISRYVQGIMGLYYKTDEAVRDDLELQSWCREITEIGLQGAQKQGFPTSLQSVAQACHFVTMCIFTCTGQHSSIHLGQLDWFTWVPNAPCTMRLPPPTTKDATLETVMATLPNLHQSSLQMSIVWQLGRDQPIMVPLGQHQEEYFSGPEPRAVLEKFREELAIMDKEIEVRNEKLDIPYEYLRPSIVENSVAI
Put plainly: biochemical. The class given is tissue-based, Reticulocytes. The conditions noted are these: reticulocytes.

The next series deals with Melanocortin receptor 3 (Homo sapiens, UniProt P41968). It is filed as cell membranes, Membrane. The settings on record: hek293.
The target of another series is Melanocortin receptor 5 (Homo sapiens, UniProt P33032). It is filed as cell membranes, HEK293, Membrane. The conditions noted are these: hek293. Note: in other assays of this panel Not Active means under 50% inhibition at 10 µM.
A short description of series [8]: DRUGMATRIX: Phorbol Ester radioligand binding (ligand: [3H] PDBu). It is filed as cell membranes, Mus musculus, ICR, Brain, Membrane. The conditions noted are these: Not Active = under 50% inhibition at 10 µM.
Series [9] deals with Protein phosphatase 3 catalytic subunit alpha (Homo sapiens, UniProt Q08209). Also noted: species or system Escherichia coli.
In series [10] the target is Tyrosine-protein kinase Lck (Homo sapiens, UniProt P06239). Nature of the series: DRUGMATRIX: Protein Tyrosine Kinase, LCK enzyme inhibition (substrate: Poly(Glu:Tyr)). The settings on record: insect cells; Not Active = under 50% inhibition at 10 µM. The class given is cell-based, Insect cells.
Another series deals with Cytochrome P450 2C9 (Homo sapiens, UniProt P11712). The conditions noted are these: bti-tn-5b1-4.

pIC50, pKi: −log10 of the molar value.

Chain of 5-hydroxytryptamine receptor 6 (P50406 whole entry): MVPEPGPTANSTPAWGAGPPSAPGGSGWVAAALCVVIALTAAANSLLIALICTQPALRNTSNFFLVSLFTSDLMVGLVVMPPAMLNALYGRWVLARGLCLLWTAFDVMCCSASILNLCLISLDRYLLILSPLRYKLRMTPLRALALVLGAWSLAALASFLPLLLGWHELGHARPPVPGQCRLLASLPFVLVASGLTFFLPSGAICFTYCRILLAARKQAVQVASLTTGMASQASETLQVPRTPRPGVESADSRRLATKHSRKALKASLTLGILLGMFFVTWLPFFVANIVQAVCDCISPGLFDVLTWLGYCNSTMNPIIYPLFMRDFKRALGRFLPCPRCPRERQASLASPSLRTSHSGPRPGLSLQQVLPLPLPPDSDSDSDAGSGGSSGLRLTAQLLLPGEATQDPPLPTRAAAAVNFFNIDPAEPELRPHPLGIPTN
Chain of Melanocortin receptor 5 (P33032 whole entry): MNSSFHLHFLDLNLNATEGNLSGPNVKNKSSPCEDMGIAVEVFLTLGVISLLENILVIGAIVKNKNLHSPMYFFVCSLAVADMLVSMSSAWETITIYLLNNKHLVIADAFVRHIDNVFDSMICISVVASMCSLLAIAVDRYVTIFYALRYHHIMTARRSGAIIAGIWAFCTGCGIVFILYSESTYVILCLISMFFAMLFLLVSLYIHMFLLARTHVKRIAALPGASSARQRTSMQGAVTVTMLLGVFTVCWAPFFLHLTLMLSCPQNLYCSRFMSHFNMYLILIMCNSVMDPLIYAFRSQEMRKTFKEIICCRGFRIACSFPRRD
Chain of Melanocortin receptor 3 (P41968 whole entry): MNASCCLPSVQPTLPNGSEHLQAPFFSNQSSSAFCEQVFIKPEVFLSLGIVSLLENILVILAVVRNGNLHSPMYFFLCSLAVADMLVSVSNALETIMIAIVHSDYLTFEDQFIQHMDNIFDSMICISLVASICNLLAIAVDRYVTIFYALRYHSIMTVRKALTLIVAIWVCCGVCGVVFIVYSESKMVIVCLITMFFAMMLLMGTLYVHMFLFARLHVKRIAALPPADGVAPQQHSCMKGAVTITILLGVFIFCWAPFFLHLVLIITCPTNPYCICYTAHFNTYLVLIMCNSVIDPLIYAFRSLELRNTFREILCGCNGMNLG
Chain of Cytochrome P450 2C9 (P11712 whole entry): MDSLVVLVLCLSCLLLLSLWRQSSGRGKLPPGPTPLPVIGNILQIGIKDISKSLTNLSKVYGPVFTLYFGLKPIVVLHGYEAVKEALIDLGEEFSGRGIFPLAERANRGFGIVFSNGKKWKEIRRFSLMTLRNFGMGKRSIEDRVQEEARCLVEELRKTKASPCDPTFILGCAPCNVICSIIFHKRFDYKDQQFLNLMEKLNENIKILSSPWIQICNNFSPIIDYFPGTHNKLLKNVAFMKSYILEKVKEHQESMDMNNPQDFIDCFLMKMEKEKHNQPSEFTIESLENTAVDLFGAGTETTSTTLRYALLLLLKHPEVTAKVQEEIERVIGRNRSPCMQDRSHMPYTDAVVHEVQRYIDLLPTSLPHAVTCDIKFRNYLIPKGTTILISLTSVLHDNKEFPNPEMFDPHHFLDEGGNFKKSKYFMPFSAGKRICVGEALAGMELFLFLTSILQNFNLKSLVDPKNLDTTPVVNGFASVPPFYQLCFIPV
Chain of Tyrosine-protein kinase Lck (P06239 whole entry): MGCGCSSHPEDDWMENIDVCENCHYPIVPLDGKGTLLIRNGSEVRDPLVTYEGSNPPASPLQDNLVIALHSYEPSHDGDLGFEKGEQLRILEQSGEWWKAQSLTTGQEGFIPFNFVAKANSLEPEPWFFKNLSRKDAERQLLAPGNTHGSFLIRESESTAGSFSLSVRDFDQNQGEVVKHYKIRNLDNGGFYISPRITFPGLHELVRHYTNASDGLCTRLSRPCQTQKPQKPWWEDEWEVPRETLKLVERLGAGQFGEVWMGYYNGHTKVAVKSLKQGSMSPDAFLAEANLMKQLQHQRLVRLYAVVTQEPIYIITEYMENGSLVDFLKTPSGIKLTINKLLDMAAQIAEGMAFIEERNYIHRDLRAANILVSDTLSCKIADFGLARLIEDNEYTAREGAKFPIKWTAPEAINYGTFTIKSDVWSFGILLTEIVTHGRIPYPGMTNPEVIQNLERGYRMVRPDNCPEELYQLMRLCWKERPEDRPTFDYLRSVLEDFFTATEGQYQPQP
Chain of C-C chemokine receptor type 5 (P51681 whole entry): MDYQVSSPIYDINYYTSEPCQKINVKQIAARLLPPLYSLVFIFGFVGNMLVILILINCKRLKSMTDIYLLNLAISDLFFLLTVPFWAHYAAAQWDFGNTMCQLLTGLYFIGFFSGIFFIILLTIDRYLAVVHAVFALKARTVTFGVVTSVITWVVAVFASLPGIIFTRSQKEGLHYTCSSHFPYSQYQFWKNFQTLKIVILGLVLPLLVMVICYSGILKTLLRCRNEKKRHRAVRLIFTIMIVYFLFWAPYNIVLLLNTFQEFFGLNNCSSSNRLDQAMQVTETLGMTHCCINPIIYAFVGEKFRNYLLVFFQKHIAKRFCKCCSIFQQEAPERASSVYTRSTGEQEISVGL

`Cc1ccccc1N1CCN(CCc2nnc3n2CCCC3)CC1` [DAPIPRAZOLE]: the IC50 result in [1], in series [2], in series [3], in [4], in series [5] and in [6] was “Not Active” throughout. Moreover, the IC50 entry (in [7]; against Melanocortin receptor 3; at Melanocortin receptor 5; in series [8]; in [9]; in [10]) was “Not Active” each time. The IC50 result at Cytochrome P450 2C9 is on record as “Not Active”. Also, the Ki entry (in [2]; in [4]; in series [8]; at Cytochrome P450 2C9) was “Not Active” each time.
`CC(=O)OCC(=O)[C@@]1(OC(C)=O)[C@@H](C)C[C@H]2[C@@H]3C[C@H](F)C4=CC(=O)C=C[C@]4(C)[C@@]3(F)[C@@H](O)C[C@@]21C` [DIFLORASONE DIACETATE]: the IC50 result in series [1], in series [2], in [3], in series [4], in series [5] and in [6] was “Not Active” in each case. Besides, the IC50 entry (in series [7]; on Melanocortin receptor 3; on Melanocortin receptor 5; in [8]; in series [9]; in series [10]) was “Not Active” in each case. Further, the IC50 result at Cytochrome P450 2C9 is listed as “Not Active”. Besides, the Ki result (in series [2]; in [4]; in series [8]; at Cytochrome P450 2C9) was “Not Active” each time.
In general, pIC50 refers to the negative decadic logarithm of the IC50, by convention in mol/L. By pKi is commonly meant the negative decadic logarithm of the Ki, by convention in mol/L. On to `COc1ccc([C@@H]2Sc3ccccc3N(CCN(C)C)C(=O)[C@@H]2OC(C)=O)cc1` [DILTIAZEM], for which the IC50 entry in [1], in series [2], in series [3], in series [5], in [6] and in series [7] was “Not Active” each time. Also, the IC50 result (against Melanocortin receptor 3; on Melanocortin receptor 5; in series [8]; in series [9]; in series [10]; against Cytochrome P450 2C9) was “Not Active” each time. Further, the Ki entry (in series [2]; in series [8]; at Cytochrome P450 2C9) was “Not Active” each time. The negative logarithm of the IC50 (pIC50) in series [4] (read-out: IC50) was 6.20. In series [4] (read-out: Ki), the negative-log Ki (pKi) is 6.21.
For `CCc1ccc(C(=O)C(C)CN2CCCCC2)cc1` (centres undefined) [EPERISONE], the IC50 result in series [1], in [2], in series [3], in [4], in series [5] and in series [6] was “Not Active” each time. The IC50 result (in series [7]; against Melanocortin receptor 3; against Melanocortin receptor 5; in series [8]; in [9]; in series [10]) was “Not Active” throughout. In addition, the IC50 entry against Cytochrome P450 2C9 is “Not Active”. In addition, the Ki entry (in series [2]; in [4]; in series [8]; on Cytochrome P450 2C9) was “Not Active” throughout.
Turning to `C=C1CC[C@H](O)C/C1=C/C=C1\CCC[C@]2(C)[C@@H]([C@H](C)/C=C/[C@H](C)C(C)C)CC[C@@H]12` [ERGOCALCIFEROL], the IC50 entry in [1], in series [2], in [3], in [4], in series [5] and in series [6] was “Not Active” in each case. Moreover, the IC50 entry (in series [7]; against Melanocortin receptor 3; at Melanocortin receptor 5; in series [8]; in [9]; in [10]) was “Not Active” in each case. The IC50 result on Cytochrome P450 2C9 is “Not Active”. Moreover, the Ki result (in [2]; in [4]; in series [8]; at Cytochrome P450 2C9) was “Not Active” in each case.
Regarding `NCC1(CC(=O)O)CCCCC1` [GABAPENTIN], the IC50 result in series [1], in series [2], in series [3], in series [4], in [5] and in series [6] was “Not Active” throughout. The IC50 result (in series [7]; against Melanocortin receptor 3; at Melanocortin receptor 5; in series [8]; in [9]; in series [10]) was “Not Active” in each case. Moreover, the IC50 entry on Cytochrome P450 2C9 is reported as “Not Active”. Moreover, the Ki result (in [2]; in [4]; in series [8]; at Cytochrome P450 2C9) was “Not Active” each time.
Consider `CC[N+](CC)(CC)CCOc1cccc(OCC[N+](CC)(CC)CC)c1OCC[N+](CC)(CC)CC.[I-].[I-].[I-]` [GALLAMINE TRIETHIODIDE], for which the IC50 entry in [1], in series [2], in series [3], in [4], in series [5] and in [6] was “Not Active” in each case. The IC50 entry (in [7]; at Melanocortin receptor 3; against Melanocortin receptor 5; in [8]; in series [9]; in [10]) was “Not Active” each time. Also, the IC50 result against Cytochrome P450 2C9 is given as “Not Active”. Moreover, the Ki entry (in series [2]; in series [4]; in series [8]; at Cytochrome P450 2C9) was “Not Active” in each case.

Source of the values: ChEMBL document CHEMBL1909046, “DrugMatrix in vitro pharmacology data”.
